Type in all cases: cell-based
For one series, the system named is Adenovirus, Type 3. Description: Antiadenovirus activity (reduction of viral cytopathogenic effect) in FL cells. The note with it: Human mastadenovirus B, 192 h; 50% inhibitory dose; FL cells infected with 100 TCID50; observed eight days after the infection; read-out: ID50 (the source's name). An excerpt: FL cells were infected with 100 TCID₅₀ (50% tissueculture infected doses) of viruses and cultured with various concentrations of the compouns.
In general terms: Protection from cytopathic effect is a common read-out in antiviral testing.

Series [1] is described as follows: Cytotoxicity in non-infected control culture (FL cells). The note with it: human, non-infected FL cell control culture, eight days.
In series [2] the test system is Herpes Simplex Virus Type 1, HF Strain. Description: Inhibitory effect against herpes simplex virus (reduction of viral cytopathogenic effect) in Vero cells. An excerpt:
(§1) Vero cells were infected with 100 TCID₅₀ (50% tissue-culture infected doses) of viruses and cultured with various concentrations of the compounds.

Series [3] is described as follows: Cytotoxicity in non-infected control culture (Vero cells). The note with it: monkey.
Text: as §1

Where [4] appears, read: Human alphaherpesvirus 1, 72 h, concentration required to reduce the viral cytopathogenic effect by 50%, Vero cells infected with 100 TCID50, observed three days after the infection, read-out: ID50 (the source's name).
Where [5] appears, read: Human alphaherpesvirus 1, Vero, 72 h, read-out: ID50.

Values after ≈ are worked out from the molar mass of the structure shown. Read-outs that look alike come from different tables or passages of the source.

As to `Nc1nc2c(ncn2COCCO)c(=O)[nH]1` [Acyclovir], the IC50 in the series with Adenovirus, Type 3 was 200 µg/mL (≈ 888 µM); in series [2] (setting [4]) it was 3.13 µg/mL (≈ 13.9 µM). This compound also yielded an MCC at 192 h in series [1] of 400 µg/mL. In series [3] (vero cells), this compound displayed an MCC at 72 h of 800 µg/mL.

For the compound `O=c1[nH]c(=O)n([C@H]2C[C@H](O)[C@@H](CO)O2)cc1I` [IUDR], the IC50 in series [2] (setting [4]) was 50 µg/mL (≈ 141 µM). The compound also returned an MCC at 72 h in series [3] (vero cells) of 200 µg/mL.

As for `Nc1ccn([C@@H]2O[C@H](CO)[C@@H](O)[C@@H]2O)c(=O)n1` [Ara-C], the IC50 in series [2] (setting [5]) came to 0.39 µg/mL (≈ 1.6 µM). Moreover, in series [3] (minimum concentration to cause a visible disruption of normal cell morphology, non-infected Vero cells, three days, read-out: Cytotoxicity), the MCC at 72 h was found to be 0.78 µg/mL.

With `Nc1ncnc2c1ncn2[C@@H]1O[C@H](CO)[C@@H](O)[C@@H]1O` [Ara-A], the IC50 in series [2] (setting [5]) came out at 12.5 µg/mL (≈ 46.8 µM). The same compound returned an MCC at 72 h in series [3] (vero cells) of 100 µg/mL.

Consider `Nc1nc2c(ncn2[C@@H]2C[C@H](CO)[C@H](O)C2)c(=O)[nH]1` [9-[(1R, 3R, 4R)-4-hydroxymethyl-3-hydroxycyclopentan-1-yl]guanine], for which the IC50 in the series on Adenovirus, Type 3 turned out to be 0.39 µg/mL (≈ 1.47 µM); in series [2] (setting [4]), 0.049 µg/mL (≈ 0.185 µM). In series [1], this compound yielded an MCC at 192 h of 3.13 µg/mL. In addition, the MCC at 72 h in series [3] (vero cells) is 12.5 µg/mL.

In the case of `O=c1[nH]c(=O)n([C@H]2C[C@H](O)[C@@H](CO)O2)cc1Br` [BUDR], the IC50 in series [2] (setting [4]) is 25 µg/mL (≈ 81.4 µM). Further, the MCC at 72 h in series [3] (vero cells) came to 100 µg/mL.
